Laboratory results published in the Deep4Chem optical property database.
Each block holds one compound with its values, some of them ahead of it.

Assay: photoluminescence quantum yield (fraction); solvent given as SMILES
[1] = in O=P(c1ccccc1)(c1ccccc1)c1ccccc1Oc1ccccc1P(=O)(c1ccccc1)c1ccccc1

- photoluminescence quantum yield (in ClCCl): 0.007
SMILES: CC(C)(C)OC(=O)CN1CCN(c2ccc3c(-c4ccc(I)cc4)c4ccc(=[N+]5CCN(CC(=O)OC(C)(C)C)CC5)cc-4oc3c2)CC1

- photoluminescence quantum yield (in C1CCOC1): 0.62
- photoluminescence quantum yield (in CC#N): 0.72
- photoluminescence quantum yield (in CC(C)O): 0.58
- photoluminescence quantum yield (in CCO): 0.49
- photoluminescence quantum yield (in CN(C)C=O): 0.63
- photoluminescence quantum yield (in CO): 0.44
- photoluminescence quantum yield (in CS(C)=O): 0.61
- photoluminescence quantum yield (in O): 0.27
- photoluminescence quantum yield (in OCC(O)CO): 0.38
SMILES: CC(=O)c1ccc2ccc3c(NCCC(=O)NCCCCCCc4nc5c(=O)[nH]c(N)nc5n4[C@H]4C[C@H](O)[C@@H](CO)O4)ccc4ccc1c2c43

- photoluminescence quantum yield (in ClC(Cl)Cl): 0.12
SMILES: CC(=O)OCCN1C(=O)c2cccc3c(Oc4ccccc4C)ccc(c23)C1=O

- photoluminescence quantum yield (in CO): 0.06
SMILES: COc1ccc(-c2nc(-c3cccc(C#N)c3)[nH]c2-c2ccc(OC)cc2)cc1

- photoluminescence quantum yield (in CC#N): 0.09
SMILES: COC(=O)C12N=N[C@](C(=O)OC)(C3C4CCC(C4)C31)C1[C@@H]3CC[C@@H](C3)[C@H]12 (stereo partly drawn)

- photoluminescence quantum yield (in CO): 0.61
SMILES: Cc1cc(C)c(B(c2cc(C#Cc3ccccc3)sc2-c2sc(C#Cc3ccccc3)cc2P(=O)(c2ccccc2)c2ccccc2)c2c(C)cc(C)cc2C)c(C)c1

- photoluminescence quantum yield (in ClCCl): 0.32
SMILES: COc1ccc(C#Cc2nc3ccccc3nc2-c2csc(OC)c2)cc1

- photoluminescence quantum yield (in ClCCl): 0.11
SMILES: COc1ccc(O)c(-c2nc(C)c3n2CCCC3)c1

- photoluminescence quantum yield (in CC#N): 0.91
- photoluminescence quantum yield (in CO): 0.97
SMILES: O=c1c2ccccc2c2c3c(cccc13)c(-c1ccccc1)c1c3cccc4cccc(c43)c12

- photoluminescence quantum yield (in ClCCl): 0.03
SMILES: C(#Cc1ncnc2ccccc12)c1ccc(N(c2ccccc2)c2ccccc2)cc1

- photoluminescence quantum yield (in CC#N): 0.29
- photoluminescence quantum yield (in ClCCl): 0.33
SMILES: COC(=O)c1cccc2c1C#Cc1c(NC(C)=O)cccc1OCCCO2

- photoluminescence quantum yield (in CC#N): 0.024
- photoluminescence quantum yield (in CO): 0.017
- photoluminescence quantum yield (in ClCCl): 0.125
- photoluminescence quantum yield (in O): 0.002
SMILES: CCOC(=O)CC[N+]1=c2cc3c(cc2CCC1)=Cc1c(c2cc4c5c(c2oc1=O)CCCN5CCC4)O3

- photoluminescence quantum yield (in CC#N): 0.114
SMILES: N#C/C(=C\c1ccc(C#N)cc1)c1nc(-c2ccc(Cl)cc2)c(-c2ccccc2)s1

- photoluminescence quantum yield (in C1CCOC1): 0.26
SMILES: COc1ccc(C2=C(c3ccc(OC)cc3)C(c3ccc(OC)cc3)=[N+]3C2=C(c2ccc(OC)cc2)c2c(-c4ccc(OC)cc4)c(-c4ccc(OC)cc4)c(-c4ccc(OC)cc4)n2[B-]3(F)F)cc1

- photoluminescence quantum yield (in C1CCCCC1): 0.72
SMILES: C(#Cc1ccccc1)C1=Cc2ccc3ccccc3c2NB1c1ccccc1

- photoluminescence quantum yield (in CCO): 0.41
- photoluminescence quantum yield (in ClC(Cl)Cl): 0.33
SMILES: COc1ccc2c(-c3nc(-c4cccc(Br)c4)no3)cc(=O)oc2c1

- photoluminescence quantum yield (in CC1CCCCC1): 0.46
- photoluminescence quantum yield (in CC#N): 0.45
SMILES: C(=C\c1c2ccccc2cc2ccccc12)/c1ccccc1

- photoluminescence quantum yield (in ClCCl): 0.00105
SMILES: CCOC(=O)C1=C(C(=O)OC)N2CCc3cc(OC)c(OC)cc3C2=C[C@H](c2ccc(Cl)cc2)C12c1ccccc1-c1ccccc12

- photoluminescence quantum yield (in ClC(Cl)Cl): 0.131
SMILES: F[B-]1(F)OC(c2ccccc2)=Cc2c3ccccc3c3ccccc3[n+]21

- photoluminescence quantum yield (in CC#N): 0.14
SMILES: Cc1ccc(-c2nc3c([nH]2)C2=CC(=O)S[C@]2(C)[C@@]2(C)SC(=O)C=C32)cc1

- photoluminescence quantum yield (in C1CCOC1): 0.25
SMILES: CC(C)(C)c1cc2c3c(c1)c1cc(C(C)(C)C)cc4c1n3B1c3c-2cccc3-c2cc(C(C)(C)C)cc3c5cc(C(C)(C)C)cc-4c5n1c23

- photoluminescence quantum yield (in ClCCl): 0.43
SMILES: CCCCCc1ccc(C#Cc2cc(C#Cc3ccc(CCCCC)cc3)c3ccc4c(C(=O)c5ccccc5)cc(C#Cc5ccc(CCCCC)cc5)c5ccc2c3c54)cc1

- photoluminescence quantum yield (in ClC(Cl)Cl): 0.13
SMILES: CCn1c2ccccc2c2cc3c(cc21)c1ccccc1n3CC

- photoluminescence quantum yield (in C1COCCO1): 0.189
SMILES: COc1ccc(C2=N/C(=C\c3ccc(C#N)cc3)C(=O)N2)cc1OC

- photoluminescence quantum yield (in CC#N): 0.0227
- photoluminescence quantum yield (in O): 0.0124
SMILES: COc1ccc2c(c1)[n+]([O-])nc(N)[n+]2[O-]

Further lines, the compound ahead of its results:

SMILES: N#Cc1c(-c2ccc(N(c3ccccc3)c3ccccc3)cc2)c(C#N)c(-c2ccc(N(c3ccccc3)c3ccccc3)cc2)c(C#N)c1-c1ccc(N(c2ccccc2)c2ccccc2)cc1
- photoluminescence quantum yield [1]: 1

SMILES: c1ccc(-c2nc3ccccc3nc2-c2cc(-n3c4ccccc4c4ccccc43)cc(-n3c4ccccc4c4ccccc43)c2)cc1
- photoluminescence quantum yield (in Cc1ccccc1): 0.19

SMILES: Oc1ccccc1/C=N/CC/N=C/c1ccccc1O
- photoluminescence quantum yield (in CC#N): 0.053

SMILES: F[B-]1(F)n2c(nc(Br)c2Br)-c2cccc[n+]21
- photoluminescence quantum yield (in C1CCCCC1): 0.47
- photoluminescence quantum yield (in C1CCOC1): 0.32
- photoluminescence quantum yield (in C1COCCO1): 0.35
- photoluminescence quantum yield (in CC#N): 0.32
- photoluminescence quantum yield (in CCCCCC): 0.45
- photoluminescence quantum yield (in CO): 0.31
- photoluminescence quantum yield (in ClC(Cl)Cl): 0.41

SMILES: CC1=C(c2ccccc2)C(C)=[N+]2C1=C(c1ccccc1)c1c(C)c(-c3ccccc3)c(C)n1[B-]2(F)F
- photoluminescence quantum yield (in Cc1ccccc1): 0.325

SMILES: CCN(CC)c1ccc2cc(-c3nc4cc(C(=O)Nc5ccccc5)ccc4o3)c(=O)oc2c1
- photoluminescence quantum yield (in ClCCl): 0.35

SMILES: O=C1CCCC2=C1C(c1cccc(Cl)c1)c1c(c3ccccc3oc1=O)N2 (stereo not drawn)
- photoluminescence quantum yield (in CS(C)=O): 0.6

SMILES: CCc1ccc(-c2nc(-c3ccc(-n4c5ccccc5c5ccccc54)cc3)cc(-c3ccc(-n4c5ccccc5c5ccccc54)cc3)n2)cc1
- photoluminescence quantum yield (in C1CCOC1): 0.6
- photoluminescence quantum yield (in CN(C)C=O): 0.74
- photoluminescence quantum yield (in Cc1ccccc1): 0.71
- photoluminescence quantum yield (in ClC(Cl)Cl): 0.58

SMILES: COc1ccc2c(c1)c1cc(OC)ccc1n2-c1nc2ccccc2nc1-n1c2ccc(OC)cc2c2cc(OC)ccc21
- photoluminescence quantum yield (in Cc1ccccc1): 0.13

SMILES: F[B-]1(F)n2cccc2C(c2c3ccccc3cc3ccccc23)=C2C=CC=[N+]21
- photoluminescence quantum yield (in CCCCCC): 0.135
- photoluminescence quantum yield (in Cc1ccccc1): 0.008
- photoluminescence quantum yield (in ClCCl): 0.002

SMILES: O=C1c2cccc3cc4ccccc4c(c23)C(=O)N1Cc1ccccn1
- photoluminescence quantum yield (in C1CCOC1): 0.83
- photoluminescence quantum yield (in CCCCCC): 0.61
- photoluminescence quantum yield (in CCO): 0.91
- photoluminescence quantum yield (in Cc1ccccc1): 0.69
- photoluminescence quantum yield (in ClCCl): 0.93

SMILES: Cc1cc2c(o1)=CC1=C(C(F)(F)F)c3cc4oc(C)cc4n3[B-](F)(F)[N+]=21
- photoluminescence quantum yield (in C1CCOC1): 0.92
- photoluminescence quantum yield (in CC#N): 0.84
- photoluminescence quantum yield (in CCO): 0.87
- photoluminescence quantum yield (in CO): 0.7
- photoluminescence quantum yield (in Cc1ccccc1): 0.97
- photoluminescence quantum yield (in ClC(Cl)Cl): 0.98

SMILES: C(S/C=C/c1ccc(/C=C/SC=C2CCCCCC2)cc1)=C1CCCCCC1
- photoluminescence quantum yield (in ClCCl): 0.109

SMILES: O=[N+]([O-])c1ccc(/C=C/c2nc3c4ccccc4c4ccccc4c3o2)cc1
- photoluminescence quantum yield (in CC#N): 0.2

SMILES: CCCCCCC(CCCCCC)N1C(=O)c2cccc3c(-c4ccc(OC)c5ccccc45)ccc(c23)C1=O
- photoluminescence quantum yield (in CCCCCC): 0.33
- photoluminescence quantum yield (in CCCCCCCCCCCCCC): 0.34
- photoluminescence quantum yield (in CCCCCCCCCCCO): 0.23
- photoluminescence quantum yield (in CCCCO): 0.088
- photoluminescence quantum yield (in CN(C)C=O): 0.13
- photoluminescence quantum yield (in Cc1ccccc1): 0.18
- photoluminescence quantum yield (in ClC(Cl)Cl): 0.39

SMILES: O=C1/C(=C\c2ccc3oc4ccccc4c3c2)S(=O)(=O)c2ccccc21
- photoluminescence quantum yield (in C1CCOC1): 0.037
- photoluminescence quantum yield (in C1COCCO1): 0.047
- photoluminescence quantum yield (in CC#N): 0.041
- photoluminescence quantum yield (in CC(C)=O): 0.055
- photoluminescence quantum yield (in CCOC(C)=O): 0.048
- photoluminescence quantum yield (in CN(C)C=O): 0.192
- photoluminescence quantum yield (in CO): 0.025
- photoluminescence quantum yield (in CS(C)=O): 0.209
- photoluminescence quantum yield (in Cc1ccccc1): 0.116
- photoluminescence quantum yield (in ClC(Cl)Cl): 0.036
- photoluminescence quantum yield (in ClCCl): 0.092

SMILES: COC(=O)c1cccc2c1C#Cc1c(N)cccc1OCCCO2
- photoluminescence quantum yield (in CC#N): 0.03
- photoluminescence quantum yield (in ClCCl): 0.14

SMILES: C(=C1c2ccccc2CCc2ccccc21)c1ccc(-c2cc(-c3ccc(C=C4c5ccccc5CCc5ccccc54)cc3)cc(-c3ccc(C=C4c5ccccc5CCc5ccccc54)cc3)c2)cc1
- photoluminescence quantum yield (in C1CCOC1): 0.0045

SMILES: c1ccc(-c2nc(-c3ccccc3)n3ccccc23)cc1
- photoluminescence quantum yield (in ClC(Cl)Cl): 0.14
- photoluminescence quantum yield (in ClCCl): 0.217

SMILES: CCCC1(CCC)c2cc(-c3ccc(C(C)(C)CC)cc3)ccc2-c2ccc(-c3ccc(C(C)(C)CC)cc3)cc21
- photoluminescence quantum yield (in C1CCCCC1): 0.92

SMILES: Cc1ccccc1C1=C2C=CC(=[N+](C)C)C=[C]2[Ge]([CH3])([CH3])[c]2cc(N(C)C)ccc21
- photoluminescence quantum yield (in O): 0.34

SMILES: c1ccc(-c2cc(-c3nnc(-c4ccc(N5c6ccccc6Oc6ccccc65)cc4)o3)c(-c3ccccc3)c(-c3ccccc3)c2-c2ccccc2)cc1
- photoluminescence quantum yield (in Cc1ccccc1): 0.264
- photoluminescence quantum yield (in c1ccc(-n2c(-c3c(-n4c5ccccc5c5ccccc54)cccc3-n3c4ccccc4c4ccccc43)nc3ccccc32)cc1): 0.93

SMILES: COc1ccc(-c2nc(-c3ccc(C#N)cc3)[nH]c2-c2ccc(OC)cc2)cc1
- photoluminescence quantum yield (in CO): 0.6

SMILES: CN(C)c1ccc(C(=O)Nc2ccc([N+](=O)[O-])cc2)cc1
- photoluminescence quantum yield (in C1CCCCC1): 0.0001
- photoluminescence quantum yield (in C1CCOC1): 0.0003
- photoluminescence quantum yield (in CC#N): 0.0002
- photoluminescence quantum yield (in CCOCC): 0.0006

SMILES: CC(C)[Si](C#Cc1c2nc3ccccc3nc2c(C#C[Si](C(C)C)(C(C)C)C(C)C)c2nc3c4ccccc4c(=O)c4ccccc4c3nc12)(C(C)C)C(C)C
- photoluminescence quantum yield (in ClCCl): 0.5

SMILES: CC(C)(C)c1ccc2c(c1)c1cc(C(C)(C)C)ccc1n2-c1ccccc1-c1nc(-c2ccccc2P(=O)(c2ccccc2)c2ccccc2)nc(-c2ccccc2P(=O)(c2ccccc2)c2ccccc2)n1
- photoluminescence quantum yield [1]: 0.38

SMILES: COc1cccc(OC)c1C1=C2C(C)=CC(C)=[N+]2[B-](F)(F)n2c(C)cc(C)c21
- photoluminescence quantum yield (in C1CCOC1): 0.64
- photoluminescence quantum yield (in CC#N): 0.54
- photoluminescence quantum yield (in CC(=O)C(C)(C)C): 0.64
- photoluminescence quantum yield (in CC(C)=O): 0.72
- photoluminescence quantum yield (in CCCCCC): 0.71
- photoluminescence quantum yield (in CCOC(C)=O): 0.47
- photoluminescence quantum yield (in CO): 0.58

SMILES: Oc1ccccc1-c1nc(-c2ccccc2)c2ccccn12
- photoluminescence quantum yield (in ClCCl): 0.144

SMILES: CN(C)c1ccc2nc(-c3ccc(C(=O)Nc4ccccc4)cc3)sc2c1
- photoluminescence quantum yield (in C1CCCCC1): 0.89
- photoluminescence quantum yield (in CC#N): 0.92
- photoluminescence quantum yield (in CC(C)O): 0.91
- photoluminescence quantum yield (in CO): 0.76
- photoluminescence quantum yield (in CS(C)=O): 0.99
- photoluminescence quantum yield (in ClC(Cl)Cl): 0.98
- photoluminescence quantum yield (in c1ccccc1): 0.92

SMILES: c1cc2ccc3ccc(-n4c5ccccc5c5ccccc54)c4ccc(c1)c2c34
- photoluminescence quantum yield (in CCCCCC): 0.26
- photoluminescence quantum yield (in CCO): 0.38
- photoluminescence quantum yield (in CCOC(C)=O): 0.29
- photoluminescence quantum yield (in ClCCl): 0.44
